Results taken from the supplement of paper PMC10307832.

Compound: CNC(=O)c1cc(Oc2ccc(NC(=O)Nc3ccc(Cl)c(C(F)(F)F)c3)cc2)ccn1 [Sorafenib] + CC(C)C[C@H](NC(=O)[C@H](Cc1ccccc1)NC(=O)c1cnccn1)B(O)O [Bortezomib] (partner 0.002 µM)
Experiment: relative viability (nuclei count vs DMSO), 5 days (fraction); higher = more cells survive
Procedure, shortened: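 Each reported value is a median over duplicate plates. It expresses relative viability: treated-well nuclei count divided by vehicle-well nuclei count. Lung cancer cell lines in 1536-well plates were dosed by pin tool a day after seeding, alone with one drug or with a fixed anchor-drug dose plus five library-drug doses (not always all listed) in √10 steps, and nuclei were counted after 5 days.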

Cell Line | relative viability (first compound 0.08 µM) | relative viability (first compound 0.253 µM) | relative viability (first compound 2.53 µM) | relative viability (first compound 8 µM)
201T | 1.1 | 1.07 | 1.19 | 1.18
A-427 | 0.953 | 0.922 | 0.96 | 0.817
ABC-1 | 0.36 | 0.253 | 0.321 | 0.336
BEN | 0.951 | 0.659 | – | 0.631
CAL-12T | 1.04 | 0.689 | 1.24 | 0.465
COR-L23 | 1.11 | 0.964 | 0.888 | 0.877
COR-L 105 | – | 0.806 | 0.994 | 0.478
ChaGo-K-1 | 1.18 | 0.781 | 1.16 | 0.451
EKVX | 1.19 | 0.879 | 0.962 | 0.994
EMC-BAC-2 | 1.06 | 0.917 | 1.07 | 1.02
EPLC-272H | 0.945 | 0.872 | 0.959 | 0.696
H3255 | 0.841 | 0.706 | 1.05 | 0.726
HARA | 1.18 | 1.02 | 1.16 | 1.02
HCC-15 | 0.996 | 0.83 | 0.912 | 0.807
HCC-44 | 0.814 | 0.805 | 0.865 | 0.699
HCC-78 | 0.517 | 0.427 | – | 0.585
HCC-366 | 1.05 | 0.98 | 0.991 | 0.831
HCC-827 | 1.06 | 1.04 | 0.929 | –
HOP-62 | 0.639 | 0.64 | – | 0.232
IA-LM | 0.704 | 0.363 | 0.458 | 0.408
LC-2-ad | 1.25 | 1.01 | 0.914 | 0.618
LCLC-97TM1 | 0.725 | 0.623 | 0.992 | 0.73

Cell Line | relative viability (first compound 0.08 µM) | relative viability (first compound 0.253 µM) | relative viability (first compound 2.53 µM) | relative viability (first compound 8 µM)
LCLC-103H | 1.08 | 1.23 | 1.05 | 1.08
LOU-NH91 | 0.548 | 0.454 | 0.552 | 0.537
LU99A | 1.21 | 1.12 | 1.06 | 0.714
LXF-289 | 0.98 | 0.997 | 1.03 | 0.926
NCI-H23 | 0.97 | 0.89 | 0.804 | 0.861
NCI-H322M | 1.3 | 1.18 | – | 1.55
NCI-H441 | 0.489 | 0.433 | 0.277 | 0.219
NCI-H460 | 1.01 | 1.02 | 0.972 | –
NCI-H520 | 0.828 | 0.665 | 0.599 | 0.232
NCI-H596 | 1.02 | – | 1.19 | 1.14
NCI-H647 | 1.17 | 0.829 | 0.745 | 0.39
NCI-H650 | 0.759 | 0.581 | 0.746 | 0.677
NCI-H661 | 0.96 | 0.871 | 0.648 | 0.615
NCI-H727 | 0.775 | 0.618 | 0.699 | 0.516
NCI-H838 | 0.875 | – | 1.15 | 0.651
NCI-H1355 | 1.15 | 1.05 | 1.14 | 1.15
NCI-H1437 | 0.629 | 0.513 | 0.59 | –
NCI-H1563 | – | 0.905 | 0.976 | 0.508
NCI-H1650 | 0.239 | 0.217 | 0.225 | 0.212
NCI-H1651 | 0.995 | 0.855 | 0.92 | 0.801
NCI-H1666 | – | 0.66 | 0.851 | –
NCI-H1703 | 0.193 | 0.207 | 0.183 | 0.151

Cell Line | relative viability (first compound 0.08 µM) | relative viability (first compound 0.253 µM) | relative viability (first compound 2.53 µM) | relative viability (first compound 8 µM)
NCI-H1734 | 1.01 | 1.14 | 0.885 | 0.346
NCI-H1755 | 0.921 | 0.945 | 0.988 | 0.689
NCI-H1792 | 1.02 | 0.957 | 0.958 | 0.92
NCI-H1915 | 1.01 | 0.766 | 0.923 | 0.99
NCI-H1975 | 0.404 | 0.375 | 0.445 | 0.201
NCI-H1993 | 1.6 | 0.994 | 1.24 | 1.07
NCI-H2009 | 0.898 | 0.689 | 0.912 | 0.522
NCI-H2023 | 1.2 | 1.02 | 0.945 | 0.319
NCI-H2085 | 1.09 | 0.824 | 1.01 | 0.91
NCI-H2087 | 0.76 | 0.708 | 0.849 | 0.454
NCI-H2126 | 1.14 | 1.17 | 1.09 | 1.16
NCI-H2228 | 1.24 | 0.893 | 1.02 | 0.615
NCI-H2347 | 1.13 | 0.997 | 1.02 | 0.868
NCI-H2405 | 1.03 | 0.905 | 1 | 0.926
NCI-H3122 | 0.993 | 0.984 | 1.06 | 0.952
PC-3 [JPC-3] | 0.875 | 0.726 | 0.818 | 0.928
PC-14 | 0.911 | 0.89 | 0.827 | 0.316
RERF-LC-KJ | 1.12 | 0.992 | 1.17 | 0.992
SK-LU-1 | 1.16 | 1.07 | 1.11 | 0.735
SW 1573 | 1.22 | 1.05 | 0.989 | 0.286
UMC-11 | 0.609 | 0.627 | 0.702 | 0.231
